Test results: ChEMBL document CHEMBL1137517, “Rational design, synthesis and evaluation of (6aR( *),11bS( *))-1-(4-fluorophenyl)-4-{7-[4-(4-fluorophenyl)-4-oxobutyl]1,2,3,4,6,6a,7,11b,12,12a(RS)-decahydropyrazino[2',1':6,1]pyrido[3,4-b]indol-2-yl}-butan-1-one as a potential neuroleptic agent” (Bioorg Med Chem, 2007)

Tests used:
[1] = target: 5-hydroxytryptamine receptor 2A (Rattus norvegicus, UniProt P14842); experiment: Displacement of [3H]ketanserin from 5HT2A receptor in rat brain; type: tissue-based
D(2) dopamine receptor = D(2) dopamine receptor (Rattus norvegicus, UniProt P61169); experiment: Displacement of [3H]spiperone from dopamine D2 receptor in rat brain; type: tissue-based
Rattus norvegicus [2] = experiment: Blockade of secondary conditioned avoidance response in ip dosed rat; type: functional
Rattus norvegicus [3] = experiment: Blockade of conditioned avoidance response in ip dosed rat; type: functional
Mus musculus [4] = experiment: Reduction of amphetamine-induced hyperactivity in ip dosed mouse; type: functional
Rattus norvegicus [5] = experiment: Blockade of unconditioned avoidance response in ip dosed rat; type: functional
D(1A) dopamine receptor = D(1A) dopamine receptor (Rattus norvegicus, UniProt P18901); experiment: Displacement of [3H]SCH-23390 from dopamine D1 receptor in rat brain; type: tissue-based
Mus musculus [6] = experiment: Effect on locomotor activity in ip dosed mouse assessed as motor deficit by rota rod test; type: functional
Mus musculus [7] = experiment: Antagonism of amphetamine-induced toxicity in ip dosed mouse; type: functional
Rattus norvegicus [8] = experiment: Cataleptic activity in ip dosed rat; type: ADME, organism-based; settings: in vivo
Rattus norvegicus [9] = organism: Rattus norvegicus; experiment: Ratio of ED50 for cataleptic activity in rat to ED50 for conditioned avoidance response in rat; type: functional

5-hydroxytryptamine receptor 2A, sequence (P14842 whole entry): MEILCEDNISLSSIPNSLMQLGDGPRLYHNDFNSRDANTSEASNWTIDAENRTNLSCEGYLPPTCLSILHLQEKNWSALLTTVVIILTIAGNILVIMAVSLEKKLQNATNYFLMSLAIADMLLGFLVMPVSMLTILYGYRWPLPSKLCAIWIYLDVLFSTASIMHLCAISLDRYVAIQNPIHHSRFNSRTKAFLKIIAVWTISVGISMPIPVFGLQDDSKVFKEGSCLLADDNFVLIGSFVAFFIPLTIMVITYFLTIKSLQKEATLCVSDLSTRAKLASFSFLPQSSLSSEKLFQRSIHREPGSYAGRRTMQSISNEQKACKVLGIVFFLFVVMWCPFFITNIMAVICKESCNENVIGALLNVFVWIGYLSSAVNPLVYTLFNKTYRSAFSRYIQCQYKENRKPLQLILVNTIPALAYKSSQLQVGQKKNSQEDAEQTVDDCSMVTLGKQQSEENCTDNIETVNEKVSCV
D(2) dopamine receptor, sequence (P61169 whole entry): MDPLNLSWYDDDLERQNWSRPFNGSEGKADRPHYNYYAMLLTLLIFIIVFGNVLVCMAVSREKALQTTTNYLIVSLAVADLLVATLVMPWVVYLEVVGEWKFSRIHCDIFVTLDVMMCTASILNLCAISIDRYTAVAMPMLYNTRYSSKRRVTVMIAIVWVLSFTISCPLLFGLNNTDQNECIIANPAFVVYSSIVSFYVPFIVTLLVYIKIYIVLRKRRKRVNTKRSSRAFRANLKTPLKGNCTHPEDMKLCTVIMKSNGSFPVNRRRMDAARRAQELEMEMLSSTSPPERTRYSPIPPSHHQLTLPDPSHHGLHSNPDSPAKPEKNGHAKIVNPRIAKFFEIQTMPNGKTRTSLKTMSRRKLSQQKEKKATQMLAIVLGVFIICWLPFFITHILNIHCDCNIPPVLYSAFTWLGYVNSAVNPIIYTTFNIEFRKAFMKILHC
D(1A) dopamine receptor, sequence (P18901 whole entry): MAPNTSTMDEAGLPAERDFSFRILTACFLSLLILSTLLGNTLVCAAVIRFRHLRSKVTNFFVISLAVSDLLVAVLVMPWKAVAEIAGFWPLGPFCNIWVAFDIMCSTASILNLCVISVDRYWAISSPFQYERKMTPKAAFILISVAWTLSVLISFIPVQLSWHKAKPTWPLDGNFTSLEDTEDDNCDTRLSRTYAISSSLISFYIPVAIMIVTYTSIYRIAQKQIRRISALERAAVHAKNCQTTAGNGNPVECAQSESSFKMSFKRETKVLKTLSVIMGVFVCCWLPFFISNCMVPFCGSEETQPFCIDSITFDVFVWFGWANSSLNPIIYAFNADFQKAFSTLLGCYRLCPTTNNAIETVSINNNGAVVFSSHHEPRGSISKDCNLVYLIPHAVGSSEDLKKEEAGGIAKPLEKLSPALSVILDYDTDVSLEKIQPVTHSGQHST

Row | SMILES | Ki [1] [nM] | Ki (D(2) dopamine receptor) [nM] | Ki (D(1A) dopamine receptor) [nM] | ED50 (Rattus norvegicus [2]) [mg/kg] | ED50 (Rattus norvegicus [3]) [mg/kg] | ED50 (Mus musculus [4]) [mg/kg] | ED50 (Rattus norvegicus [5]) [mg/kg] | ED50 (Mus musculus [6]) [mg/kg] | ED50 (Mus musculus [7]) [mg/kg] | ED50 (Rattus norvegicus [8]) [mg/kg] | Ratio (Rattus norvegicus [9])
1 | O=C(CCCN1c2ccccc2C2CC3CNCCN3CC21)c1ccc(F)cc1 (mixture of isomers) | > 100000 | > 100000 | – | – | – | – | – | – | – | – | –
2 | O=C(CCCN1CCC(O)(c2ccc(Cl)cc2)CC1)c1ccc(F)cc1 [HALOPERIDOL] | – | – | – | 0.04 | 0.1 | – | – | – | – | – | –
3 | O=C(CCCN1CCN2Cc3[nH]c4ccccc4c3CC2C1)c1ccc(F)cc1 (stereo not drawn) [BIRIPERONE] | 24 | 13.2 | 425 | 0.04 | 0.09 | 0.75 | 9.8 | 2.55 | 1 | 0.86 | 9.5

Continued, in another order:

Row | Ki [1] [nM] | Ki (D(2) dopamine receptor) [nM] | Ki (D(1A) dopamine receptor) [nM] | SMILES | ED50 (Rattus norvegicus [2]) [mg/kg] | ED50 (Rattus norvegicus [3]) [mg/kg] | ED50 (Mus musculus [4]) [mg/kg] | ED50 (Rattus norvegicus [5]) [mg/kg] | ED50 (Mus musculus [6]) [mg/kg] | ED50 (Mus musculus [7]) [mg/kg] | ED50 (Rattus norvegicus [8]) [mg/kg] | Ratio (Rattus norvegicus [9])
4 | 92.5 | 93.8 | – | O=C(CCCN1CCN2CC3Nc4ccccc4C3CC2C1)c1ccc(F)cc1 (stereo not drawn) | – | – | – | – | – | – | – | –
5 | 9.35 | 2250 | 0.643 | O=C(CCCN1CCN2CC3C(CC2C1)c1ccccc1N3CCCC(=O)c1ccc(F)cc1)c1ccc(F)cc1 (stereo not drawn) | 0.01 | 0.07 | 1.71 | 5.6 | 4.33 | 5.75 | 0.88 | 12.6
